Measurements published in patent US20240252494A1, “Mechanotransduction Disruption Mediation in Skin Grafting Methods and Compositions for Use in Practicing the Same” (The Board of Trustees of the Leland Stanford Junior …, priority 2021, published 2024).

What was measured:
[1] = system: full-thickness excisional wounds with STSG; assay: Scar contracture analysis in porcine STSG model; format: in vivo, red Duroc pigs
Source text: (§1) STSG were not disturbed during the first 3 days.
(§2) After three weeks, dressings (and hydrogels) were changed twice per week until month 3. STSG were no longer bolster dressed and instead a conventional dressing was used (Telfa+Tegaderm). Each STSG within the animal was biopsied for histological and molecular evaluation at the end of the study.
STSG were monitored photographically at each dressing change. Each image was taken with a ruler or standard measurement device to standardize measurements. Scar areas were traced over time in ImageJ. Contracture was measured as change in scar area, normalized to the area of the STSG during the first dressing change. Two independent evaluators measured scar area, and the resultant scar area was the average of the two measurements.

[2] = system: full-thickness excisional wounds with STSG; assay: Cutometer viscoelastic analysis of STSG biomechanical properties; format: in vivo, red Duroc pigs; settings: vs untreated STSG; P<0.05
Source text: as §1, §2
A cutometer (Dual MPA 580, Courage+Khazaka Electronic) was used to evaluate the firmness and elasticity of the healing tissue and unwounded skin. Cutometer assessment is one of the most common instruments to measure viscoelasticity in human patients (111, 112), measuring the vertical deformation of the skin surface by applying negative pressure (suction) through a small circular diameter (8 mm probe). Deformation (suction) for two seconds followed by two seconds of relaxation (no suction) was applied three times and averaged. The firmness 0 was measured as the amplitude at the end of the suction phase (RO metric) and normalized against the values of STSG treated with blank hydrogels (111). Increased deformation to a consistent negative pressure corresponds to less firm tissue, more similar to unwounded skin.

[3] = system: full-thickness excisional wounds with STSG; assay: Histological analysis of collagen architecture of porcine STSG; format: in vivo, red Duroc pigs
Method: as §1
No patient identifying information was retained with the samples.
Masson's Trichrome staining and Picrosirius Red staining were performed, and images were captured with a Leica DM5000 B upright microscope. For Picrosirius Red, polarized light microscopy was used to obtain 40× magnification images and analysis of fiber alignment was performed using CurveAlign (109) and MatFiber (98, 110). The strength of alignment ranges from a value of 0 (completely random fiber alignment) to 1 (completely aligned fibers). Quantification of individual collagen fiber parameters (fiber length, width) was performed using CT-FIRE (http://loci.wisc.edu/software/ctfire) (109, 113).

[4] = system: porcine STSG cells; assay: scRNA-seq of porcine STSG tissue; format: in vivo, red Duroc pigs; settings: for number of DEGs between untreated STSG and STSG treated with FAKI: POD7
Method: We obtained a 1 cm^2 tissue from the center of our STSG groups or unwounded skin. The tissue was thoroughly cut into small 1 mm^2 pieces using a scalpel before then being carefully minced with fine scissors. To maximize cell capture for scRNA-seq, diligent care was made to cut the tissue into a fine tissue paste consistency. An increased enzyme concentration and volume of 30 ml of 1 mg/mL Liberase (Sigma-Aldrich 5401127001) in PBS were used to fully break down the dense, fibrotic porcine extracellular matrix. The cell-digest suspensions were constantly agitated (rotated) for a total of 2 hours at 37° C. Tissue solution was subjected to maximum speed vortex mixer (VWR) for 30 seconds before being placed in the oven, after 1 hour, and again after total of 2 hours to physically disrupt any tissue that had clumped together and maximize the tissue surface area exposed to enzymatic digestion at all times.
The tissue solution was filtered through a 100 μm Nylon cell filter (Fisher-Scientific 08-771-19) into a new conical tube, and 20 mL of 10% FBS DMEM was added through the filter to quench the enzymatic reaction and release any cells trapped within the filter, maximizing downstream cell yield. Solutions were spun at 350×g for 5 min at 4° C. in a centrifuge, supernatant was aspirated, and cells were then resuspended in 20 mL 10% FBS DMEM and passed through a 70 μm Nylon cell filter. A 20 mL solution of 10% FBS in PBS (FACS Buffer) was added through the filter to wash the remaining cells.
This cellular suspension was then resuspended in a concentrated solution and submitted for droplet-based microfluidic single cell RNA sequencing (scRNA-seq) at the Stanford Functional Genomics Facility (SFGF) using the 10× Chromium Single Cell platform (Single Cell 3′ v3, 10× Genomics, USA). The cell suspension, reverse transcription master mix, and partitioning oil was loaded onto a single cell chip, processed on the Chromium Controller, and reverse transcription was performed at 53° C. for 45 min. cDNA was amplified for 12 cycles total (BioRad C1000 Touch thermocycler) with cDNA size selected using SpriSelect beads (Beckman Coulter, USA) and a 3:5 ratio of SpriSelect reagent volume to sample volume. cDNA was analyzed on an Agilent Bioanalyzer High Sensitivity DNA chip for qualitative control, fragmented for 5 min at 32° C., followed by end repair and A-tailing at 65° C. for 30 min, and then double-sided size selected with SpriSelect. Sequencing adaptors were ligated to the cDNA at 20° C. for 15 min. cDNA was amplified using a sample-specific index oligo as primer, followed by another round of double-sided size selection. Final libraries were analyzed on an Agilent Bioanalyzer High Sensitivity DNA chip for qualitative control purposes. cDNA libraries were sequenced on a HiSeq 4000 Illumina platform aiming for 50,000 reads per cell.
Base calls were converted to reads using the Cell Ranger (10× Genomics; version 3.1) implementation of mkfastq and then aligned against our custom pig transcriptome using Cell Ranger's count function with SC3Pv3 chemistry and 5,000 expected cells per sample (51). Cell barcodes were filtered for high quality based on an optimized threshold of having at least 200 unique transcripts profiled, less than 10,000 total transcripts, and less than 10% of their transcriptome of mitochondrial origin (114).
Unique molecular identifiers (UMIs) from each cell barcode were retained for all downstream analysis. Raw UMI counts were normalized with a scale factor of 10,000 UMIs per cell and subsequently natural log transformed with a pseudocount of 1 using the R package Seurat (version 3.1.1) (52). Highly variable genes were identified, and cells were scaled by regression to the fraction of mitochondrial transcripts. Aggregated data was then evaluated using uniform manifold approximation and projection (UMAP) analysis over the first 15 principal components (115). […]

[5] = system: human fibroblasts; assay: 3D organotypic scar culture system (strained collagen scaffolds), immunofluorescent staining; format: cell-based; settings: 10% strain, 48 hours, 10 µM FAKI, vs strained fibroblasts
Source text: (§3) To determine whether the increased mechanical strain experienced by cells within the healing STSG would trigger the same fibroblast transcriptional states observed in vivo, we used our previously published three-dimensional (3D) organotypic scar culture system that permits the precise manipulation of strain (and therefore stress) without any other potential confounding factors (27, 98). Fibroblasts were first isolated from human skin and seeded within 3D collagen scaffolds (FIG. 8A). These scaffolds were then subjected to either 10% strain (Strain, S), 10% strain with FAK inhibition (Strain+FAKI, S+FAKI), or 0% strain (No Strain, NS) as a control (FIG. 8, A to C). Because it seemed likely that healing tissue would not be subjected to maximal strains (due to pain), we used a strain profile of 10% to represent the average wound strain environment.
We isolated and cultured dermal fibroblasts from both healthy human and porcine skin samples. Fibroblasts were isolated by mechanical and enzymatic digestion and cultured under standard conditions until passage 3. Following our previously published protocols (98), we used the primary fibroblasts to create fibroblast-populated collagen hydrogels with a concentration of 200 k cells/mL and 2 mg/mL collagen (PureCol, Advanced Biomatrix 5005). In brief, collagen scaffolds were formulated in a cruciform shape with sponges in the arms and cultured in petri dishes on top of a layer (˜0.5 cm) of cured polydimethylsiloxane (PDMS; Sylgard 184 Silicone Elastomer Kit; Dow Corning). Pins were pushed through the sponges in the hydrogel cruciform arms to constrain the scaffolds during an initial pre-culture period (24h). Then, we subjected the scaffolds to either 0% strain (no strain) or 10% equibiaxial strain (either with or without FAKI) for an additional 48 hours. Strained but untreated cells were given 10 μL DMSO in 20 mL culture media, while strained and treated cells were administered 10 μL of 20 mM FAKI in DMSO in 20 mL culture media to achieve a final concentration of 10 µM FAKI.
We used a suture to paint nine Titanium(IV) oxide dots (Sigma-Aldrich 248576) on the surface of the central region of the gel to track and quantify the imposed strains. We used a digital camera to image the markers before and after strain. Strain was imposed by removing the pins, manually extending the hydrogel cruciform arms, and pushing the pins back through the arms to hold the scaffold in a new, extended position. Photographs of the marker positions were used to compute a single homogenous deformation gradient tensor F that provided the least-squares best fit mapping of the 9 marker positions from the undeformed to deformed positions by solving the overdetermined matrix equation: […]

[6] = system: porcine fibroblasts; assay: 3D organotypic scar culture system (strained collagen scaffolds), scRNA-seq; format: cell-based; settings: 10% strain, 10 µM FAKI
Source text: as §3
We isolated and cultured dermal fibroblasts from both healthy human and porcine skin samples. Fibroblasts were isolated by mechanical and enzymatic digestion and cultured under standard conditions until passage 3. […]
We used a suture to paint nine Titanium(IV) oxide dots (Sigma-Aldrich 248576) on the surface of the central region of the gel to track and quantify the imposed strains. […]

[7] = system: porcine STSG tissue
Source text: We developed a novel porcine STSG model using surgical techniques commonly applied for the clinical treatment of burn wounds and other soft-tissue defects. First, we created full-thickness excisional wounds measuring 25 cm^2 on the backs of adult red Duroc pigs, leaving the underlying muscle fascia intact. In the same surgery, we harvested thin STSG (0.01 in) from the same pig using a clinical-grade electric dermatome (Zimmer Biomet). First, the unwounded skin of the donor site was lubricated (Surgilube) and the dermatome was passed over the skin at a controlled rate. The resultant skin was placed on a Skin Graft Carrier (Dermacarrier II, Zimmer 00770800010) and slowly fed through a Skin Graft Mesher (Zimmer 7701) to create a mesh graft of 1:1.5 ratio (41). The grafts were carefully spread out on the graft carrier and placed onto the exposed muscle fascia of the wound beds. Skin staples (Covidien 8886803712) were used to secure the graft to the wound bed (about 5 staples per edge). The grafts were covered with three layers of petrolatum gauze (Xeroform, Covidien SH84-433605) to prevent them from drying out and also to prevent bacterial infection. Bolster dressings were prepared by cutting 5.5 cm×5.5 cm squares from VAC Granufoam (Small Dressing Kit, Acelity M8275065) and heavily secured on top of the gauze and STSG with additional skin staples. […]

[8] = system: tumor growth; settings: in vivo; cited from earlier work
[9] = POD90, regenerative lineages 1 and 2

Q: What does the source list for CN(c1ncccc1CNc1nc(Nc2ccc3c(c2)CC(=O)N3)ncc1C(F)(F)F)S(C)(=O)=O [FAKI]?
A: scar contracture at early time points ([1]; POD7, P=0.09, POD21, P<0.05): blocked scar contracture; scar contracture ([1]; POD28, change in scar area normalized to STSG area at first dressing change, untreated and blank hydrogel-treated STSGs over 70%): 30%; STSG firmness and stiffness (cutometer deformation) [2]: less firm and less stiff; collagen fiber length and alignment ([3]; deep dermis, POD90, P<0.05): shorter and more randomly aligned; overall collagen deposition ([3]; superficial and deep dermis, by decreasing fiber widths and architectural complexity): decreased; number of DEGs between untreated STSG and STSG treated with FAKI ([4]; all other cell types): < 75; number of DEGs between untreated STSG and STSG treated with FAKI ([4]; fibroblasts): about 50; number of DEGs between untreated STSG and STSG treated with FAKI ([4]; monocyte-lineage cells (macrophages, monocytes, dendritic cells)): > 170; number of DEGs between untreated STSG and STSG treated with FAKI ([4]; neutrophils and lymphoid cells, each): around 100; adipogenic gene sets and stem cell markers (CD34 and NT5E) in fibroblasts ([4]; POD90, lineages 1 and 2): promoted; fibroblast transcriptional state (CellRank lineages) ([4]; POD90, primarily lineages 1 and 2): transcriptional similarity to those from unwounded skin; APOE, CLEC3B, CD34, and PPARG unspliced pre-mRNA in fibroblasts [4, 9]: upregulation; pro-fibrotic genes in fibroblasts [4, 9]: abrogation; CD34 expression ([5]; P<0.0001): significantly increasing; APOE expression ([5]; P<0.01): significantly increasing; aSMA expression ([5]; P<0.01): significantly decreased; CXCL14 expression ([5]; P<0.05): significantly decreased; THBS4 expression ([5]; P<0.05): significantly decreased; APOE, EGR1 and PRDX1 expression [6]: upregulation; pro-fibrotic responses (CXCL14, THBS2, COL1A1 expression) [6]: abrogated; secretion of IP-10 (CXCL10) ([7]; POD 7, P<0.05): upregulated; number of infiltrating inflammatory cells (F4/80-positive macrophages) ([7]; early (POD 7, P<0.001) and late (POD 90, P<0.05) time points): significantly decreased; tumor growth [8]: blocks tumor growth
